# In publication PMC10059125, “The Pharmaceutical Formulation Plays a Pivotal Role in Hydroxytyrosol Pharmacokinetics” (Pharmaceutics, 2023):
# Read-outs that look alike come from different tables or passages of the source.
# What was measured:
# [1] = Urinary excretion of DOPET and metabolites in healthy volunteers after oral enteric-coated capsules; format: in vivo, human; conditions: for cumulative metabolites distribution in urine, mean relative area percentage with respect to all identified and unidentified compounds: 24 h urine, oral 15 mg (97.3 µmole) DOPET; for mean peak in urine: approximately 6 h after oral 15 mg (97.3 µmole) DOPET, n = 20
# Protocol: (§1) The study protocol, approved by the local ethics committee (Register Protocol No. 146 17/05/2018), was conducted on 20 healthy Caucasian volunteers, aged 25–60 years with BMI ranging from 19 and 25 kg/m^2, enrolled at the University hospital facility of the Clinical Research Unit of the Department of Biomedicine and Prevention, University of Tor Vergata (Rome, Italy). Two enteric-coated capsules, each containing 7.5 mg of DOPET, were administered orally. All subjects fulfilled the following eligibility criteria: non-smokers, non-alcoholics, healthy diet, and no drugs during the experimental procedure. The administration was preceded by a 4-day washout with polyphenols and an alcoholic-free diet to avoid any interference, and by a 10-h fasting period. The study was conducted in compliance with the Declaration of Helsinki, and the selected subjects agreed to the procedure by reviewing and signing the relevant, informed consensus.
# Urine samples were collected at baseline (T0) and, after the intervention, at the following mean times: 3.45, 4.18, 5.14, 6.16, 8.19, 12, and 24 h in sterile, dark polystyrene tubes (100 mL) with screw caps with 10% L-ascorbic acid as a chemical preservative. Both plasma and urine samples were immediately shipped in dry ice to the Department of Chemical, Biological, Pharmaceutical and Environmental Sciences, University of Messina (Italy) for chemical analyses, stored at −80 °C and processed within 48 h.
# (§2) Plasma and urine samples were processed, before and after hydrolysis, according to Alemán-Jiménez et al., with some modifications. Briefly, plasma and urine samples were thawed at room temperature and centrifuged (10,000× g for 5 min). Sample supernatants (100 and 400 μL, respectively) were hydrolyzed by incubation with 300 UI (plasma) and 1500 UI (urine) of β-glucuronidase from Helix pomatia for 2 h at 37 °C, clarified with 200 μL of MeOH/HCl (0.2 M) and centrifuged at 10,000× g for 5 min. An SPE clean-up step, by using Strata X-AW cartridges (Phenomenex, Torrance, CA, USA) mounted on VacElut Cartridge Manifolds (Agilent Technologies, Inc., Santa Clara, CA, USA), was carried out. Cartridges were conditioned and equilibrated with 2 mL of MeOH/HCOOH (98:2, v/v) and 2 mL of water/HCOOH (98:2, v/v), respectively. After sample loading, SPE cartridges were washed with water/HCOOH (98:2, v/v). Analytes were eluted with 1 mL of MeOH/HCOOH (98:2, v/v) and dried by a gentle stream of nitrogen at room temperature. Extracts were recovered with 200 μL of the mobile phase used for the LC-DAD-ESI-MS/MS analyses (see Section 2.4). Quality control samples were prepared by spiking DOPET and metabolites (DOPAC, HVA, and MOPET) in baseline control plasma and urine samples at two different concentrations (1.2 ng/mL and 5.3 ng/mL) correspondent to the limit of quantification (LOQ) in plasma and urine samples, respectively. Both precision (CV < 10%) and accuracy (≥90%) recorded in three replicates were acceptable according to ICH and FDA guidelines.
# (§3) Plasma and urinary DOPET and metabolites were analyzed by LC-DAD-ESI-MS/MS (Agilent Technologies, Inc., Santa Clara, CA, USA). Chromatographic analysis was carried out by a Luna Omega PS C18 column (150 mm × 2.1 mm, 5 µm; Phenomenex, Torrance, CA, USA) at 25 °C by using a mobile phase consisting of 0.1% HCOOH (Solvent A) and methanol (Solvent B) according to the following elution program: 0–18 min, 5% B; 18–21 min, 95% B; 21–30 min, 5% B; 30–35 min, 5%. The injection volume was 10 µL, and the flow rate was 0.4 mL/min. The UV–Vis spectra were recorded, ranging from 190 to 400 nm, and chromatograms were acquired at 280 nm. […]
# [2] = design: method as in PMID 32524230; conditions: 5 mg DOPET conveyed in EVOO, 20 volunteers; cited from earlier work
# [3] = design: method as in PMID 20045462; conditions: single oral dose 2.5 mg/kg b.w., 10 subjects; cited from earlier work
# [4] = design: method as in doi:10.1016/j.jff.2016.02.046; conditions: cited from earlier work
# [5] = design: method as in doi:10.1016/j.foodchem.2011.07.101; conditions: after chronic or acute consumption of olive leaf supplements, 55 healthy young adults; cited from earlier work
# [6] = design: method as in PMID 23766098; conditions: cited from earlier work; for Cmax: olive leaf extract
# [7] = design: method as in PMID 28452954; conditions: in vitro; cited from earlier work
# [8] = Plasma pharmacokinetics of free DOPET in healthy volunteers after oral enteric-coated capsules (DOPET in EVOO), non-compartmental analysis; format: in vivo, human
# Protocol: as §1
# Blood samples were collected into 10 mL test tubes containing EDTA from a subcutaneous vein using a permanent catheter inserted into the forearm at baseline (T0) and 45, 90, 123, 150, 184, 247, 386, and 440 min. Samples were centrifuged at 1700× g for 10 min at 4 °C and the obtained plasma was aliquoted into test tubes containing citric acid (2 M, 10% v/v).
# as §2
# as §3, with “nm. The experimental parameters of the mass spectrometer (ion trap, model 6320, Agilent Technologies, Santa Clara, CA, USA) equipped with an electrospray ionization interface operating in the negative (ESI−) and positive (ESI+) ionization mode were set as follows: 3.5 kV capillary voltage, 40 psi nebulizer (N2) pressure, 350 °C drying gas temperature, 9 L/min drying gas flow, and 40 V skimmer voltage. The acquisition was carried out in full-scan mode (90–1000 m/z).” for “nm.”
# [9] = design: method as in PMID 17870451; conditions: 100 g of olives containing 76.73 mg of DOPET, 7 healthy men; cited from earlier work
# [10] = design: method as in PMID 12765992; conditions: 25 mL of EVOO, 6 healthy volunteers; cited from earlier work
# [11] = design: method as in PMID 10692578; conditions: 24 h; enriched olive oils, 6 healthy male volunteers; cited from earlier work
# [12] = human, mean, n = 20, free DOPET in plasma, oral 15 mg DOPET (2 cps)
compound,measurement,setting,value
"O=C(O)Cc1ccc(O)c(O)c1 [DOPAC, 3,4-dihydroxyphenylacetic acid]","cumulative metabolites distribution in urine, mean relative area percentage with respect to all identified and unidentified compounds",[1],13.48%
same,mean peak in urine,[1],9.93 µmol
"OCCc1ccc(O)c(O)c1 [DOPET, 3,4-dihydroxyphenyl ethanol]",Cmax,[2],0.00379 µg/mL
same,time to Cmax,[2],30 min
same,Cmax,[3],1.11 µM
same,time of maximum plasma concentration,[3],13 min
same,"urine levels of DOPET and its metabolites, share of the DOPET administered",[4]; 5 mg of DOPET/day for one week,21%
same,"urine levels of DOPET and its metabolites, share of the DOPET administered",[4]; 25 mg of DOPET/day for one week,28%
same,forms of DOPET excreted in urine,[4]; 5 or 25 mg of DOPET/day for one week,0–0.02%
same,"cumulative metabolites distribution in urine, mean relative area percentage with respect to all identified and unidentified compounds",[1],8.49%
same,mean peak in urine,[1],4.67 µmol
same,detection in urine samples,[5],neither oleuropein nor DOPET was detected
same,Cmax,[6]; capsule matrix,0.056 µg/mL
same,Cmax,[6]; liquid matrix,0.059 µg/mL
same,decrease of Tmax,[6]; passing from encapsulated to the liquid formulation,about 30 min
same,genotoxicity or mutagenicity,[7],does not exhibit any genotoxicity or mutagenicity
same,bioavailability compared with the literature,"[8]; enteric-coated capsule, DOPET in EVOO, versus previous results at the same dose administered",about 2.5 times
same,Cmax,"[8]; human, plasma, po, 15 mg, mean, n = 20, free DOPET in plasma, oral 15 mg DOPET (2 cps), read-out: Cmax",0.0055 µg/mL
same,Tmax,[8]; [12],2.05 h
same,half-life,[8]; [12],2.51 h
same,AUCextrap_pred,"[8]; mean, n = 20, fraction of total AUC due to extrapolated AUC, oral 15 mg DOPET",18.23%
same,Cmax,"[8]; mean, n = 20, free DOPET in plasma, oral 15 mg DOPET (2 cps)",0.00548 µg/mL
same,plasma concentration at Cmax,[9],3.15 µg/mL
same,time to Cmax,[9],1 h
same,Cmax,[10],0.02583 µg/mL
same,Tmax,[10],0.967 h
same,urine excretion with respect to the dose administered,[11],29–40%
"COc1cc(CC(=O)O)ccc1O [HVA, homovanillic acid]",mean peak in urine,[1],18.39 µmol
"COc1cc(CCO)ccc1O [MOPET, 4-hydroxy-3-methoxyphenethanol]","cumulative metabolites distribution in urine, mean relative area percentage with respect to all identified and unidentified compounds",[1],0.94%
same,mean peak in urine,[1],0.44 µmol
C/C=C1/[C@H](O[C@@H]2O[C@H](CO)[C@@H](O)[C@H](O)[C@H]2O)OC=C(C(=O)OC)[C@H]1CC(=O)OCCc1ccc(O)c(O)c1 [oleuropein],detection in urine samples,[5],neither oleuropein nor DOPET was detected
OCCc1ccc(O)cc1 [tyrosol],urine excretion with respect to the dose administered,[11],21–24%
